{"source": "paper PMC3629081", "about": "“Tetrahydropyrazolo[1,5-a]Pyrimidine-3-Carboxamide and N-Benzyl-6′,7′-Dihydrospiro[Piperidine-4,4′-Thieno[3,2-c]Pyran] Analogues with Bactericidal Efficacy against Mycobacterium tuberculosis Targeting MmpL3” (PLoS ONE, 2013)", "key": {"[1]": {"system": "M. tuberculosis H37Rv mutants with MmpL3 mutations", "assay_type": "cell-based, Mycobacterium tuberculosis"}, "M. tuberculosis": {"system": "M. tuberculosis", "assay_type": "cell-based, Mycobacterium tuberculosis", "conditions": "10x MIC"}}, "note": "Where “and” joins values, the source holds several entries; their conditions need not be identical. Identical values can stand only once.", "data": [{"smiles": "CC(=O)NC[C@H]1CN(c2ccc(N3CCOCC3)c(F)c2)C(=O)O1", "note": "[Linezolid]", "values": [{"measurement": "Ratio MICmut/MICwt", "setting": "[1]", "value": "0.5 and 1.0"}, {"measurement": "susceptibility of all isolated mutants to classic antitubercular drugs", "setting": "[1]", "value": "susceptible"}]}, {"smiles": "CC[C@@H](CO)NCCN[C@@H](CC)CO", "note": "[Ethambutol]", "values": [{"measurement": "Ratio MICmut/MICwt", "setting": "[1]", "value": "0.5 and 1.0 and 0.8"}, {"measurement": "susceptibility of all isolated mutants to classic antitubercular drugs", "setting": "[1]", "value": "susceptible"}]}, {"smiles": "COc1c(N2C[C@@H]3CCCN[C@@H]3C2)c(F)cc2c(=O)c(C(=O)O)cn(C3CC3)c12", "note": "[Moxifloxacin]", "values": [{"measurement": "Ratio MICmut/MICwt", "setting": "[1]", "value": "1.0 and 0.5"}, {"measurement": "susceptibility of all isolated mutants to classic antitubercular drugs", "setting": "[1]", "value": "susceptible"}]}, {"smiles": "CCc1ccc([C@H]2C[C@@H](C(F)(F)F)n3ncc(C(=O)NCc4ccc(OC)cc4)c3N2)cc1", "note": "[Compound 1, (5R,7S)-5-(4-ethylphenyl)-N-(4-methoxybenzyl)-7-(trifluoromethyl)-4,5,6,7-tetrahydropyrazolo[1,5-a]pyrimidine-3-carboxamide]", "values": [{"measurement": "frequency of spontaneous resistant mutant generation", "setting": "M. tuberculosis", "value": "6.4×10^−8 mutant/cfus"}]}, {"smiles": "c1cc2c(s1)CCOC21CCN(Cc2ccc3c(c2)OCCO3)CC1", "note": "[Compound 2]", "values": [{"measurement": "frequency of spontaneous resistant mutant generation", "setting": "M. tuberculosis", "value": "3.6×10^−8 mutant/cfus"}]}]}
